Like-named read-outs stand apart in the source and are kept apart here.
Legend:
[1] = biological target: T1, papain (Carica papaya, UniProt P00784); assay: fluorimetric papain assay with ZFR-MCA; titration of papain by the irreversible inhibitor (positive control); format: biochemical; settings: read-out: % inhibition at 1 μM (25 nM in the well)
T1 sequence (P00784 134-345): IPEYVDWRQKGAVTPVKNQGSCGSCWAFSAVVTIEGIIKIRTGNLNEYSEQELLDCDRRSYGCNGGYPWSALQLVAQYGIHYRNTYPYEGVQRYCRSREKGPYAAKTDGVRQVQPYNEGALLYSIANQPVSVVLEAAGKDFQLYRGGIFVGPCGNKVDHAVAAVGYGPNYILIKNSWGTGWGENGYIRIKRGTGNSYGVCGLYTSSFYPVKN

[2] = biological target: T1, papain; assay: fluorimetric papain assay with ZFR-MCA substrate; format: biochemical

Compound: CC(C)C[C@H](NC(=O)C1OC1C(=O)O)C(=O)NCCCCNC(=N)N (stereo partly drawn) [E-64, 1‐[L‐N‐(trans‐epoxysuccinyl)leucyl] amino‐4‐guanidinobutane]
- inhibition at 1 µM [1]: 90%

Compound: CC(=C\C(=O)O)/C=C(\C)C[C@H](C)CCCC[C@H]1OC(=O)[C@@H]1CO [compound 1, hymeglusin]
- IC50 ([2]; read-out: IC50): 9.38 µM

Compound: CC(=C\C(=O)O)/C=C(\C)C[C@H](C)CCCC[C@@H](O)C(CO)C(=O)O (stereo partly shown) [compound 2, fusaridioic acid A]
- IC50 ([2]; read-out: IC50): 28.6 µM

Compound: COC(=O)[C@]1(Cc2ccc(O)c(CC=C(C)C)c2)OC(=O)C(O)=C1c1ccc(O)cc1 [compound 3, butyrolactone I]
- IC50 [2]: 6.24 µM

Reference: paper PMC12629174, “Exploring Bioactive Metabolites From Fusarium falciforme and Aspergillus terreus Isolated From Protease‐Rich Fruits: Antifungal, Antitrypanosomal, and Enzymatic Inhibitory Activities” (Chemistry & Biodiversity, 2025)
